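Briefly, cells in 96-well plates were exposed to five compound concentrations for 48 h, and endpoints were estimated by linear interpolation. TGI denotes the concentration required for complete inhibition of growth.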
Legend:
Test in all cases: NCI anticancer screen, dose series, 48 h
SK-MEL-5 melanoma = test system: SK-MEL-5 melanoma
A549 NSCLC = test system: A549 NSCLC
MALME-3M melanoma = test system: MALME-3M melanoma
OVCAR-3 ovarian = test system: OVCAR-3 ovarian
COLO 205 colon = test system: COLO 205 colon
ACHN renal = test system: ACHN renal
MOLT-4 leukemia = test system: MOLT-4 leukemia
HS 578T breast = test system: HS 578T breast
SK-OV-3 ovarian = test system: SK-OV-3 ovarian
T-47D breast = test system: T-47D breast
SF-268 CNS = test system: SF-268 CNS
SR leukemia = test system: SR leukemia
A498 renal = test system: A498 renal
MDA-MB-231 breast = test system: MDA-MB-231 breast
K-562 leukemia = test system: K-562 leukemia
CCRF-CEM leukemia = test system: CCRF-CEM leukemia
NCI-H23 lung = test system: NCI-H23 lung
SW-620 colon = test system: SW-620 colon
786-0 renal = test system: 786-0 renal
RXF 393 renal = test system: RXF 393 renal
SNB-75 CNS = test system: SNB-75 CNS
SF-539 CNS = test system: SF-539 CNS
HCT-116 colon = test system: HCT-116 colon
IGROV1 ovarian = test system: IGROV1 ovarian
HT29 colon = test system: HT29 colon
MDA-MB-435 = test system: MDA-MB-435
EKVX NSCLC = test system: EKVX NSCLC
SK-MEL-2 melanoma = test system: SK-MEL-2 melanoma
NCI-H226 lung = test system: NCI-H226 lung
M14 melanoma = test system: M14 melanoma
NCI/ADR-RES ovarian = test system: NCI/ADR-RES ovarian
MCF7 breast = test system: MCF7 breast
SN12C renal = test system: SN12C renal
OVCAR-8 ovarian = test system: OVCAR-8 ovarian
NCI-H522 lung = test system: NCI-H522 lung
PC-3 prostate = test system: PC-3 prostate
HCT-15 colon = test system: HCT-15 colon
HCC-2998 colon = test system: HCC-2998 colon
NCI-H460 lung = test system: NCI-H460 lung
OVCAR-4 ovarian = test system: OVCAR-4 ovarian
CAKI-1 renal = test system: CAKI-1 renal
UACC-257 melanoma = test system: UACC-257 melanoma
HL-60(TB) leukemia = test system: HL-60(TB) leukemia
HOP-62 NSCLC = test system: HOP-62 NSCLC
OVCAR-5 ovarian = test system: OVCAR-5 ovarian
KM12 colon = test system: KM12 colon
RPMI-8226 leukemia = test system: RPMI-8226 leukemia
DU-145 prostate = test system: DU-145 prostate
TK-10 renal = test system: TK-10 renal
SK-MEL-28 melanoma = test system: SK-MEL-28 melanoma
LOX IMVI melanoma = test system: LOX IMVI melanoma
UO-31 renal = test system: UO-31 renal
HOP-92 NSCLC = test system: HOP-92 NSCLC
U251 CNS = test system: U251 CNS
SF-295 CNS = test system: SF-295 CNS
SNB-19 CNS = test system: SNB-19 CNS
MDA-N = test system: MDA-N
UACC-62 melanoma = test system: UACC-62 melanoma
BT-549 breast = test system: BT-549 breast

O=C(O)c1ccccc1CC(Cc1ccc2c(c1)CCC2)C(=O)O (stereo unspecified)
TGI (SK-MEL-5 melanoma): > 100 µM
TGI (A549 NSCLC): > 100 µM
TGI (MALME-3M melanoma): > 100 µM
TGI (OVCAR-3 ovarian): > 100 µM
TGI (COLO 205 colon): > 100 µM
TGI (ACHN renal): > 100 µM
TGI (MOLT-4 leukemia): > 100 µM
TGI (HS 578T breast): > 100 µM
TGI (SK-OV-3 ovarian): > 100 µM
TGI (T-47D breast): > 100 µM
TGI (SF-268 CNS): > 100 µM
TGI (SR leukemia): > 100 µM
TGI (A498 renal): > 100 µM
TGI (MDA-MB-231 breast): > 100 µM
TGI (K-562 leukemia): > 100 µM
TGI (CCRF-CEM leukemia): > 100 µM
TGI (NCI-H23 lung): > 100 µM
TGI (SW-620 colon): > 100 µM
TGI (786-0 renal): > 100 µM
TGI (RXF 393 renal): > 100 µM
TGI (SNB-75 CNS): > 100 µM
TGI (SF-539 CNS): > 100 µM
TGI (HCT-116 colon): > 100 µM
TGI (IGROV1 ovarian): > 100 µM
TGI (HT29 colon): > 100 µM
TGI (MDA-MB-435): > 100 µM
TGI (EKVX NSCLC): > 100 µM
TGI (SK-MEL-2 melanoma): > 100 µM
TGI (NCI-H226 lung): > 100 µM
TGI (M14 melanoma): > 100 µM
TGI (NCI/ADR-RES ovarian): > 100 µM
TGI (MCF7 breast): > 100 µM
TGI (SN12C renal): > 100 µM
TGI (OVCAR-8 ovarian): > 100 µM
TGI (NCI-H522 lung): > 100 µM
TGI (PC-3 prostate): > 100 µM
TGI (HCT-15 colon): > 100 µM
TGI (HCC-2998 colon): > 100 µM
TGI (NCI-H460 lung): > 100 µM
TGI (OVCAR-4 ovarian): > 100 µM
TGI (CAKI-1 renal): > 100 µM
TGI (UACC-257 melanoma): > 100 µM
TGI (HL-60(TB) leukemia): > 100 µM
TGI (HOP-62 NSCLC): > 100 µM
TGI (OVCAR-5 ovarian): > 100 µM
TGI (KM12 colon): > 100 µM
TGI (RPMI-8226 leukemia): > 100 µM
TGI (DU-145 prostate): > 100 µM
TGI (TK-10 renal): > 100 µM
TGI (SK-MEL-28 melanoma): > 100 µM
TGI (LOX IMVI melanoma): > 100 µM
TGI (UO-31 renal): > 100 µM
TGI (HOP-92 NSCLC): > 100 µM
TGI (U251 CNS): > 100 µM
TGI (SF-295 CNS): > 100 µM
TGI (SNB-19 CNS): > 100 µM
TGI (MDA-N): > 100 µM

N#CNC(=NCc1ccccc1)N(Cc1ccccc1)Cc1ccccc1
TGI (SK-MEL-5 melanoma): 26.7 µM
TGI (A549 NSCLC): > 31.6 µM
TGI (OVCAR-3 ovarian): > 31.6 µM
TGI (MOLT-4 leukemia): 47.7 µM
TGI (T-47D breast): > 100 µM
TGI (SF-268 CNS): > 31.6 µM
TGI (SR leukemia): > 72.9 µM
TGI (MDA-MB-231 breast): 85.3 µM
TGI (K-562 leukemia): > 100 µM
TGI (CCRF-CEM leukemia): > 31.6 µM
TGI (NCI-H23 lung): > 31.6 µM
TGI (UACC-62 melanoma): 23.4 µM
TGI (SW-620 colon): > 100 µM
TGI (786-0 renal): > 31.6 µM
TGI (RXF 393 renal): > 100 µM
TGI (SF-539 CNS): > 31.6 µM
TGI (HCT-116 colon): > 31.6 µM
TGI (IGROV1 ovarian): > 31.6 µM
TGI (MDA-MB-435): > 100 µM
TGI (SK-MEL-2 melanoma): 26.4 µM
TGI (NCI-H226 lung): > 31.6 µM
TGI (M14 melanoma): > 31.6 µM
TGI (NCI/ADR-RES ovarian): > 100 µM
TGI (MCF7 breast): > 100 µM
TGI (SN12C renal): > 31.6 µM
TGI (OVCAR-8 ovarian): > 31.6 µM
TGI (NCI-H522 lung): > 31.6 µM
TGI (PC-3 prostate): > 100 µM
TGI (HCT-15 colon): > 31.6 µM
TGI (HCC-2998 colon): > 100 µM
TGI (NCI-H460 lung): > 31.6 µM
TGI (OVCAR-4 ovarian): > 31.6 µM
TGI (CAKI-1 renal): 89.6 µM
TGI (HL-60(TB) leukemia): > 31.6 µM
TGI (HOP-62 NSCLC): > 31.6 µM
TGI (OVCAR-5 ovarian): > 31.6 µM
TGI (KM12 colon): > 31.6 µM
TGI (RPMI-8226 leukemia): > 31.6 µM
TGI (DU-145 prostate): > 100 µM
TGI (TK-10 renal): > 31.6 µM
TGI (SK-MEL-28 melanoma): > 31.6 µM
TGI (LOX IMVI melanoma): > 31.6 µM
TGI (UO-31 renal): 29.3 µM
TGI (BT-549 breast): > 100 µM
TGI (HOP-92 NSCLC): > 31.6 µM
TGI (U251 CNS): > 31.6 µM
TGI (SF-295 CNS): 29 µM
TGI (SNB-19 CNS): > 100 µM
TGI (MDA-N): > 100 µM

Reference: PubChem BioAssay (NCI)
